Reference: article PMC5402301, “Discovery of tauroursodeoxycholic acid biotransformation enzymes from the gut microbiome of black bears using metagenomics” (Scientific Reports, 2017)

What was measured:
Assay in all cases: NADP+ reduction at […] nm, Michaelis-Menten fit
Type in all cases: biochemical
Conditions in all cases: NADP+ (0.5 mM in standard assay), 50 mM Tris-HCl pH 8.0, 25 °C
S1-a-2 = test system: T1, S1-a-2
T1 construct: full-length, GST fusion (pGEX-6P-1) expressed in E. coli BL21, GST tag cut off with PreScission protease; raw reads SRA SRP079591

S1-a-1 = test system: T2, S1-a-1
T2 construct: full-length, GST fusion (pGEX-6P-1) expressed in E. coli BL21, GST tag cut off with PreScission protease; raw reads SRA SRP079591

H1-a-1 = test system: T3, H1-a-1
T3 construct: full-length, GST fusion (pGEX-6P-1) expressed in E. coli BL21, GST tag cut off with PreScission protease; raw reads SRA SRP079591

Y1-a-1 = test system: T4, Y1-a-1
T4 construct: full-length, GST fusion (pGEX-6P-1) expressed in E. coli BL21, GST tag cut off with PreScission protease; raw reads SRA SRP079591

H1-a-2 = test system: T5, H1-a-2
T5 construct: full-length, GST fusion (pGEX-6P-1) expressed in E. coli BL21, GST tag cut off with PreScission protease; raw reads SRA SRP079591

Y1-b-1 = test system: T6, Y1-b-1
T6 construct: full-length, GST fusion (pGEX-6P-1) expressed in E. coli BL21, GST tag cut off with PreScission protease; raw reads SRA SRP079591

| SMILES | Km (S1-a-2) | Km (S1-a-1) | Km (H1-a-1) | Km (Y1-a-1) | Km (H1-a-2) | Km (Y1-b-1) |
| --- | --- | --- | --- | --- | --- | --- |
| C[C@H](CCC(=O)NCCS(=O)(=O)O)[C@H]1CC[C@H]2[C@@H]3[C@H](O)C[C@@H]4C[C@H](O)CC[C@]4(C)[C@H]3CC[C@]12C [TCDCA] | 263 µM | 132 µM | 390 µM | 556 µM | 695 µM |  |
| C[C@H](CCC(=O)NCCS(=O)(=O)O)[C@H]1CC[C@H]2[C@@H]3[C@@H](O)C[C@@H]4C[C@H](O)CC[C@]4(C)[C@H]3CC[C@]12C [TUDCA] |  |  |  |  |  | 6150 µM |
